For assay [1], the system named is Lithium-pilocarpine induced status epilepticus. Set-up: species or system Sprague-Dawley rats. Particulars: in vivo.
Assay [2] relates to Picrotoxin (PIC) induced clonic seizure. As to the kind of experiment: animal or person. Type of assay: in vivo, ICR mice.
Assay [3] concerns PTZ (Pentylenetetrazol) induced clonic seizure. As to the kind of experiment: animal or person. The format is in vivo, ICR mice. Particulars: for PTZ test (ip) in Mice Protection % / PTZ test (ip) in Mice Peak Time: mouse, in vivo.
The test system of assay [4] is ACTH-refractory infantile spasm (behavioral spasms). The experiment in a line: animal or person. Type of assay: in vivo, Sprague-Dawley rats. The note with it: for inhibition in vivo at 60 mg/kg: Rattus norvegicus, ip, read-out: ACTH-refractory IS (ip) Protection %, percentage of activity compared to the vehicle only; for ACTH-refractory IS (ip) Peak Time: rat, in vivo.

Assay [5] has as its system PTZ (Pentylenetetrazol) induced clonic seizure. Set-up: species or system SD rats. Particulars: rat, in vivo.
Assay [6] relates to Lithium-pilocarpine induced status epilepticus. Set-up: species or system Sprague-Dawley rats. Particulars: in vivo. The source holds these as a separate data set.
[7] abbreviates: Mus musculus, ip, read-out: PIC (ip) percentage of activity compared to the vehicle only.

The values below come from patent publication US9956197B2 (priority 2013, dated 2018).

For orientation: ED50 means the dose at which the effect has come halfway, by size or by number of responders.

Marks after values point to notes of the source that are not given here.

With `CCC(OC(N)=O)C(O)c1ccccc1Cl` (racemic) [Compound 8, 1-(2-chlorophenyl)-1-hydroxybutyl-2-carbamate], the “Intervention (rat, iv) Protection %” value in assay [1] is “^a46 (50%)”. Besides, the responders at 50 mg/kg in assay [2] (setting [7]) amounted to 33.3%.
For the molecule `CCCCC(OC(N)=O)C(O)c1ccccc1Cl` (racemic) [Compound 14, 1-(2-chlorophenyl)-1-hydroxyhexyl-2-carbamate], the “PTZ test (ip) in Mice Protection %” value in assay [3] is “^a20.4 (16.7%)”. Besides, the responders at 50 mg/kg in assay [2] (setting [7]) came to 16.7%.
Take `CNC(=O)OC(C)C(O)c1ccccc1Cl` (racemic) [Compound 29, 1-(2-chlorophenyl)-1-hydroxypropyl-2-N-methylcarbamate]: the “PTZ test (ip) in Mice Protection %” value in assay [3] was “^a20.4 (33.3%)”.
On to `CCCNC(=O)OC(C)C(O)c1ccccc1Cl` (racemic) [Compound 30, 1-(2-chlorophenyl)-1-hydroxypropyl-2-N-propylcarbamate], for which the “PTZ test (ip) in Mice Protection %” value in assay [3] is on record as “^a20.4 (33.3%)”. In addition, the responders at 50 mg/kg in assay [2] (setting [7]) was 16.7%.
Take `CC(C)NC(=O)OC(C)C(O)c1ccccc1Cl` (racemic) [Compound 31, 1-(2-chlorophenyl)-1-hydroxypropyl-2-N-isopropylcarbamate]: the “PTZ test (ip) in Mice Protection %” value in assay [3] is given as “^a20.4 (83.3%)”. The “Intervention (rat, iv) Protection %” value in assay [1] is reported as “^a46 (100%)”. Further, in assay [2] (setting [7]), the responders at 50 mg/kg came to 16.7%.
As for `CC(OC(=O)NC1CC1)C(O)c1ccccc1Cl` (racemic) [Compound 32, 1-(2-chlorophenyl)-1-hydroxypropyl-2-N-cyclopropylcarbamate], the “PTZ test (ip) in Mice Protection %” value in assay [3] is “^a20.4 (16.7%)”. Further, the “Intervention (rat, iv) Protection %” value in assay [1] was “^a46 (100%)”.
As for `C[C@@H](OC(N)=O)[C@@H](O)c1ccccc1Cl` [Compound 4, 1-(2-chlorophenyl)-(S)-1-hydroxypropyl-(R)-2-carbamate], the “PTZ test (ip) in Mice Peak Time” value in assay [3] (ip) worked out at 0.5 h. In addition, in assay [1], the “Intervention (rat, iv) Protection %” value is on record as “^a46 (100%)”. Further, in assay [2] (setting [7]), the responders at 30 mg/kg came out at 100%. In addition, in assay [4], the inhibition in vivo at 60 mg/kg stood at 24.3% and the “ACTH-refractory IS (ip) Peak Time” value is reported as 3 h.
Take `C[C@H](OC(N)=O)[C@H](O)c1ccccc1Cl` [Compound 5, 1-(2-chlorophenyl)-(R)-1-hydroxypropyl-(S)-2-carbamate]: the “PTZ test (ip) in Mice Peak Time” value in assay [3] (ip) was 0.5 h.
Take `CC[C@H](OC(N)=O)[C@@H](O)c1ccccc1Cl` [Compound 6, 1-(2-chlorophenyl)-(S)-1-hydroxybutyl-(S)-2-carbamate]: the “PTZ test (ip) in Mice Peak Time” value in assay [3] (ip) amounted to 0.5 h. The “Intervention (rat, iv) Protection %” value in assay [1] was “^a46 (100%)”. For the same molecule, the responders at 50 mg/kg in assay [2] (setting [7]) worked out at 66.7%. Besides, in assay [4], the inhibition in vivo at 60 mg/kg stood at 76.2% and the “ACTH-refractory IS (ip) Peak Time” value was found to be 3 h.
Consider `CC(C)[C@H](OC(N)=O)[C@@H](O)c1ccccc1Cl` [Compound 9, 1-(2-chlorophenyl)-(S)-1-hydroxy-3-methyl-butyl-(S)-2-carbamate], for which the “PTZ test (ip) in Mice Protection %” value in assay [3] is “^a20.4 (33.3%)”. For the same molecule, the responders at 50 mg/kg in assay [2] (setting [7]) turned out to be 16.7%.
Turning to `CCCC[C@H](OC(N)=O)[C@@H](O)c1ccccc1Cl` [Compound 12, 1-(2-chlorophenyl)-(S)-1-hydroxyhexyl-(S)-2-carbamate], the “PTZ test (ip) in Mice Protection %” value in assay [3] was “^a20.4 (33.3%)”. Also, in assay [2] (setting [7]), the responders at 50 mg/kg turned out to be 16.7%.
Turning to `CCCC[C@@H](OC(N)=O)[C@H](O)c1ccccc1Cl` [Compound 13, 1-(2-chlorophenyl)-(R)-1-hydroxyhexyl-(R)-2-carbamate], in assay [2] (setting [7]), the responders at 50 mg/kg worked out at 16.7%.
On to `CNC(=O)O[C@@H](C)[C@@H](O)c1ccccc1Cl` [Compound 15, 1-(2-chlorophenyl)-(S)-1-hydroxypropyl-(S)-2-N-methylcarbamate], for which the “Intervention (rat, iv) Protection %” value in assay [1] was “^a46 (100%)”. Besides, the responders at 50 mg/kg in assay [2] (setting [7]) amounted to 50%. Besides, in assay [5], the “PTZ test (ip) in Rats Protection %” value was “^b25 (33.3%)”. Also, in assay [4], the inhibition in vivo at 60 mg/kg was determined as 67.4% and the “ACTH-refractory IS (ip) Peak Time” value is 2 h.
Consider `CCCNC(=O)O[C@@H](C)[C@@H](O)c1ccccc1Cl` [Compound 16, 1-(2-chlorophenyl)-(S)-1-hydroxypropyl-(S)-2-N-propylcarbamate], for which the “Intervention (rat, iv) Protection %” value in assay [1] is on record as “^a46 (100%)”. The “PTZ test (ip) in Rats Protection %” value in assay [5] was “^b30 (33.3%)”.
With `C[C@H](OC(=O)NC1CC1)[C@@H](O)c1ccccc1Cl` [Compound 18, 1-(2-chlorophenyl)-(S)-1-hydroxypropyl-(R)-2-N-cyclopropylcarbamate], the “Intervention (rat, iv) Protection %” value in assay [1] is reported as “^a46 (66.7%)”. Moreover, the “PTZ test (ip) in Rats Protection %” value in assay [5] is on record as “^b30 (16.7%)”.
`CCCNC(=O)O[C@H](C)[C@H](O)c1ccccc1Cl` [Compound 23, 1-(2-chlorophenyl)-(R)-1-hydroxypropyl-(R)-2-N-propylcarbamate]: the responders at 20.4 mg/kg in assay [3] (Mus musculus, ip, read-out: PTZ test (ip) in Mice Protection %) stood at 50%. In assay [1], the “Intervention (rat, iv) Protection %” value was “^a46 (100%)”. In addition, the responders at 50 mg/kg in assay [2] (setting [7]) stood at 16.7%.
Turning to `C[C@@H](OC(=O)NC1CC1)[C@H](O)c1ccccc1Cl` [Compound 25, 1-(2-chlorophenyl)-(R)-1-hydroxypropyl-(R)-2-N-cyclopropylcarbamate], the “PTZ test (ip) in Mice Protection %” value in assay [3] is listed as “^a20.4 (66.7%)”. Moreover, in assay [1], the “Intervention (rat, iv) Protection %” value was “^a46 (100%)”.
Consider `C[C@H](OC(N)=O)[C@@H](O)c1ccc(Cl)cc1Cl` [Compound 36, 1-(2,4-dichlorophenyl)-(S)-1-hydroxypropyl-(S)-2-carbamate], for which the “PTZ test (ip) in Mice Protection %” value in assay [3] is listed as “^a20.4 (33.3%)”. In addition, in assay [2] (setting [7]), the responders at 50 mg/kg was determined as 50%. Further, in assay [4], the inhibition in vivo at 60 mg/kg is 37.5% and the “ACTH-refractory IS (ip) Peak Time” value amounted to 3 h.
Take `C[C@H](OC(N)=O)[C@@H](O)c1c(Cl)cccc1Cl` [Compound 37, 1-(2,6-dichlorophenyl)-(S)-1-hydroxypropyl-(S)-2-carbamate]: the “PTZ test (ip) in Mice Peak Time” value in assay [3] (ip) was found to be 0.25 h. Also, in assay [1], the “Intervention (rat, iv) Protection %” value is “^a46 (100%)”. The ED50 in assay [2] (Mus musculus, ip, read-out: PIC (ip) ED50) was determined as 23.4 mg/kg. Further, the “PIC (ip) Peak Time” value in assay [2] (mice) is 0.25 h. Besides, in assay [4], the inhibition in vivo at 60 mg/kg came to 83.8% and the “ACTH-refractory IS (ip) Peak Time” value turned out to be 3 h.
Take `C[C@H](OC(N)=O)[C@@H](O)c1cccc(Cl)c1Cl` [Compound 38, 1-(2,3-dichlorophenyl)-(S)-1-hydroxypropyl-(S)-2-carbamate]: the “Intervention (rat, iv) Protection %” value in assay [1] is reported as “^a46 (50%)”. Also, in assay [2] (setting [7]), the responders at 50 mg/kg was determined as 50%.
With `CC[C@H](OC(N)=O)[C@@H](O)c1ccc(Cl)cc1Cl` [Compound 39, 1-(2,4-dichlorophenyl)-(S)-1-hydroxybutyl-(S)-2-carbamate], the “PTZ test (ip) in Mice Peak Time” value in assay [3] (ip) is recorded as 0.5 h. The responders at 50 mg/kg in assay [2] (setting [7]) was 66.7%.
On to `CC[C@H](OC(N)=O)[C@@H](O)c1c(Cl)cccc1Cl` [Compound 40, 1-(2,6-dichlorophenyl)-(S)-1-hydroxybutyl-(S)-2-carbamate], for which the “PTZ test (ip) in Mice Protection %” value in assay [3] is “^a20.4 (33.3%)”. Moreover, in assay [1], the “Intervention (rat, iv) Protection %” value was “^a46 (100%)”. The responders at 50 mg/kg in assay [2] (setting [7]) turned out to be 66.6%.
As for `CCCC[C@H](OC(N)=O)[C@@H](O)c1ccc(Cl)cc1Cl` [Compound 43, 1-(2,4-dichlorophenyl)-(S)-1-hydroxyhexyl-(S)-2-carbamate], the responders at 50 mg/kg in assay [2] (setting [7]) was determined as 16.6%. In addition, the “PTZ test (ip) in Rats Protection %” value in assay [5] is “^b25 (33.3%)”.
Turning to `CCCC[C@H](OC(N)=O)[C@@H](O)c1c(Cl)cccc1Cl` [Compound 44, 1-(2,6-dichlorophenyl)-(S)-1-hydroxyhexyl-(S)-2-carbamate], the “PTZ test (ip) in Mice Protection %” value in assay [3] is given as “^a20.4 (33.3%)”. Moreover, the responders at 50 mg/kg in assay [2] (setting [7]) came to 16.6%.
Turning to `C[C@@H](OC(N)=O)[C@H](O)c1ccc(Cl)cc1Cl` [Compound 45, 1-(2,4-dichlorophenyl)-(R)-1-hydroxypropyl-(R)-2-carbamate], in assay [3], the “PTZ test (ip) in Mice Protection %” value is on record as “^a20.4 (16.7%)”. The “Intervention (rat, iv) Protection %” value in assay [1] is “^a46 (33.3%)”. The “PTZ test (ip) in Rats Protection %” value in assay [5] is “^b50 (16.7%)”.
In the case of `C[C@@H](OC(N)=O)[C@H](O)c1c(Cl)cccc1Cl` [Compound 46, 1-(2,6-dichlorophenyl)-(R)-1-hydroxypropyl-(R)-2-carbamate], in assay [1], the “Intervention (rat, iv) Protection %” value is “^a46 (50%)”. In addition, the responders at 50 mg/kg in assay [2] (setting [7]) is 33.3%. For the same molecule, in assay [4], the inhibition in vivo at 60 mg/kg came out at 78% and the “ACTH-refractory IS (ip) Peak Time” value is recorded as 3 h.
Turning to `C[C@@H](OC(N)=O)[C@H](O)c1cccc(Cl)c1Cl` [Compound 47, 1-(2,3-dichlorophenyl)-(R)-1-hydroxypropyl-(R)-2-carbamate], in assay [4], the inhibition in vivo at 60 mg/kg worked out at 91% and the “ACTH-refractory IS (ip) Peak Time” value was 3 h.
`C[C@H](OC(N)=O)[C@@H](O)c1ccccc1F` [Compound 63, 1-(2-fluorophenyl)-(S)-1-hydroxypropyl-(S)-2-carbamate]: the “Intervention (rat, iv) Protection %” value in assay [1] was “^a46 (50%)”. Further, in assay [6], the “Prevention (rat, ip) Peak Time” value amounted to 0.25 h. Further, the responders at 60 mg/kg in assay [2] (setting [7]) worked out at 33.3%.
For `C[C@H](OC(N)=O)[C@@H](O)c1ccccc1I` [Compound 65, 1-(2-iodophenyl)-(S)-1-hydroxypropyl-(S)-2-carbamate], the “PTZ test (ip) in Mice Protection %” value in assay [3] was “^a20.4 (100%)”. In addition, the “Intervention (rat, iv) Protection %” value in assay [1] was “^a46 (100%)”. In addition, in assay [6], the “Prevention (rat, ip) Peak Time” value is reported as 2 h. Also, the “PIC (ip) percentage of activity compared to the vehicle only” value in assay [2] (mice, injection amount 50 mg/kg) is reported as 50^a (100%). Also, in assay [4], the inhibition in vivo at 60 mg/kg was determined as 92.1% and the “ACTH-refractory IS (ip) Peak Time” value was determined as 3 h.
